Patent publication US10596296B2, “Heparan sulphates” (Agency for Science, Technology and Research, priority 2014, dated 2020)

Key:
TGF-β1 [1] = target: T1, TGF-β1 (Homo sapiens, UniProt P01137); assay: SPR analysis of TGF-β1 binding to biotinylated heparin on SA chip
T1 construct: full length mature TGF-β1 is 112 amino acids in length
Protocol: Biotinylated heparin was prepared based on the protocol reported by Hernaiz et al. (33). Briefly, 20 mg of heparin was filter-sterilized (0.22 μm) in 1 ml of water and incubated with 8.6 μmol of N-hydroxysuccinimide-biotin (NHS-biotin) (Pierce) in 20 μl of dimethyl sulfoxide (DMSO) for 2 h at 4° C. The biotinylated heparin was then extensively dialyzed (7000 MWCO) to remove unreacted biotin. Immobilization of the biotinylated heparin onto a streptavidin (SA) sensor chip (GE Healthcare) was carried out using the immobilization wizard on the Biacore T100 (GE Healthcare) with a targeted immobilization level of approximately 40 response units (RUs). HBS-EP running buffer (10 mM HEPES, 150 mM NaCl, 3.0 mM EDTA, 0.05% (v/v) Tween 20, pH 7.4) was used for the immobilization.
TGF-β1-heparin interactions were effected by preparing a series of TGF-β1 protein samples (50 to 800 nM final concentration) diluted in HBS-EP-0.1 running buffer (0.1% instead of 0.05% (v/v) Tween 20). […] The sample solutions were then injected over the heparin-coated chip at a flow rate of 30 μl/min for 120 s, with HBS-EP-0.1 being subsequently passed over the chip for a further 1200 s to monitor TGF-β1 dissociation. After dissociation, the sensor surface on the chip was regenerated by 2 washes of 2 M NaCl injected at 30 μl/min for 60 s. The response was measured as a function of time (sensogram) at 25° C. […]

TGF-β1 [2] = target: T1, TGF-β1; assay: Differential scanning fluorimetry (DSF) of TGF-β1; type: binding; details: TGF-β1 2.5 μM, DTT 10 mM, heparin 25 μM
Protocol: DSF was performed on a 7500 Fast Real PCR System (software version 1.4, Applied Biosystems), as described previously (34,35). TGF-β1 (2.5 μM) was tested with or without heparin (25 μM). To facilitate the melting of TGF-β1, 10 mM of dithiothreitol (DTT) was added to the reaction mix. Experiments were run as previously described (34). First derivatives of the melting curves were calculated using Origin 7 (OriginLab Corp.) to determine the melting temperature of TGF-β1 under the various conditions.

[3] = test system: chondrogenic differentiation of hMSCs; assay: qPCR of day 3 chondrogenic micromass pellets (Example 1); type: cell-based, human; details: day 3; 10 ng/ml TGF-β1 with 10 μg/ml heparin
Protocol: Chondrogenic differentiation was carried out using a modified micromass culture system as described by Zhang et al. (32). Briefly, passage 4 hMSCs were harvested and resuspended in chemically defined chondrogenic media (PT-3003, Lonza) at 2×10^7 cells/ml. Droplets of 12.5 μl were then seeded into the middle of each well in a 24-well plate and left to adhere at 37° C. for 2 h, after which, 500 μl of chondrogenic media supplemented with either 10 ng/ml of TGF-β1 (100-21C, PeproTech) alone (Media) or TGF-β1 with 10 μg/ml of heparin (Sigma-Aldrich) (Media+Hep) was added to each well. The cell droplets coalesced into spherical masses after 24 h and the micromasses harvested on day 3. Human MSCs were cultured in 6-well plates in basal media for 24 h at a density of 10,000 cells/cm^2. TGF-β1 treatments were then prepared at either 1 ng/ml or 5 ng/ml alone or in the presence of either 10 μg/ml or 40 μg/ml of full length heparin, or 1 ng/ml of TGF-β1 with 10 μg/ml size-fractionated or selectively desulfated heparin, HS^PM, HS16+ or HS16−, and incubated at room temperature for 10 min before being added to the cells. Latent TGF-β1 (LTGF-β1) treatments were similarly prepared at 3.3 ng/ml alone or with 10 μg/ml of the various GAGs described above. For inhibitor studies, the cells were pre-treated for 30 min with 10 μM SB431542 (Sigma-Aldrich) or DMSO before treatment with TGF-β1. The cells were then subjected to the various TGF-β1 treatments for 1, 6 or 24 h and lysed in 2× Laemmli buffer, before being resolved on a 4-12% SDS-PAGE gel. Samples were then immunoblotted with antibodies against SMAD2/3 (#3102, Cell Signaling), phosphorylated SMAD2 (pSMAD2, #3108, Cell Signaling), phosphorylated SMAD3 (pSMAD3, #9520, Cell Signaling) and actin (MAB1501R, Millipore). Densitometry was carried out using Quantity One software (version 4.6.6, Bio-Rad). Total RNA was isolated from chondrogenic micromass pellets using TRIZOL reagent (Invitrogen, Life Technologies) according to the manufacturer's protocol. Reverse transcription was carried out on 1 μg RNA using the SuperScript® VILO™ cDNA Synthesis Kit (Invitrogen, Life Technologies) following the manufacturer's instructions, with the incubation at 42° C. being carried out for 2 h instead of 1 h. Each qPCR contained 40 ng cDNA, 1 μl TaqMan® primer-probe mix per gene, and 10 μl Taqman® Fast Universal PCR Master Mix (Applied Biosystems, Life Technologies) in a final volume of 20 μl. Thermal cycling conditions were 95° C. for 20 s, followed by 45 cycles of 95° C. for 3 s and 60° C. for 30 s. Each qPCR was run in duplicate and gene expression was normalized to HPRT1 expression to obtain the ΔCt value. […] Relative expression levels for each primer set were expressed as fold changes by the 2^−ΔΔCt method (36). […]

LTGF-β1 = LTGF-β1 (Homo sapiens, UniProt P01137); details: reference (56); cited from earlier work
Chain of LTGF-β1 (P01137 279-390 limits assumed): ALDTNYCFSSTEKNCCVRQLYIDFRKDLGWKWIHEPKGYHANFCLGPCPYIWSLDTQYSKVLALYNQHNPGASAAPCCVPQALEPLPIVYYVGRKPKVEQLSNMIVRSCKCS
Chain of LTGF-β1 (P01137 30-278 limits assumed): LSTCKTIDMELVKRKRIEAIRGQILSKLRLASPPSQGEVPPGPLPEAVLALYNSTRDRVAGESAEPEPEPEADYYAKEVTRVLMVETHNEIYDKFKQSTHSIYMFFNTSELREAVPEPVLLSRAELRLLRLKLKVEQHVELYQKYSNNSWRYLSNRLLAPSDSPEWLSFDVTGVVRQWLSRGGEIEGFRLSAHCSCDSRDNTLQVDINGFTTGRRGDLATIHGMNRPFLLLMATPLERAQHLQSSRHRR

T1 sequence (P01137 279-390 limits assumed): as the sequence (P01137 279-390 limits assumed) above

TGF-β1 binding to heparin immobilized on Biacore SA-chip (TGF-β1 [1]): bound in a dose-dependent manner | Kd (TGF-β1 [1]; TGF-β1 50 to 800 nM injected over heparin-coated SA chip): ~475 nM | melting temperature of TGF-β1 upon addition of heparin (TGF-β1 [2]): 47.5 °C
Substance: heparin
COMP mRNA transcripts relative to Media (TGF-β1 alone) [3]: ~5 fold | SOX9 mRNA transcripts relative to Media (TGF-β1 alone) [3]: ~5 fold | effect on activation of LTGF-β1 (LTGF-β1): inhibit the activation of LTGF-β1
